Experiment [1] concerns the target T1, RARα/RXRα heterodimer bound to a DR-5 retinoic acid receptor response element (RARE) (Homo sapiens, UniProt P10276).
T1 construct: expressed in transfected cells; host or cells: CV-1 cells, transient transfection; whole cell extract
T1 sequence (P10276 1-462): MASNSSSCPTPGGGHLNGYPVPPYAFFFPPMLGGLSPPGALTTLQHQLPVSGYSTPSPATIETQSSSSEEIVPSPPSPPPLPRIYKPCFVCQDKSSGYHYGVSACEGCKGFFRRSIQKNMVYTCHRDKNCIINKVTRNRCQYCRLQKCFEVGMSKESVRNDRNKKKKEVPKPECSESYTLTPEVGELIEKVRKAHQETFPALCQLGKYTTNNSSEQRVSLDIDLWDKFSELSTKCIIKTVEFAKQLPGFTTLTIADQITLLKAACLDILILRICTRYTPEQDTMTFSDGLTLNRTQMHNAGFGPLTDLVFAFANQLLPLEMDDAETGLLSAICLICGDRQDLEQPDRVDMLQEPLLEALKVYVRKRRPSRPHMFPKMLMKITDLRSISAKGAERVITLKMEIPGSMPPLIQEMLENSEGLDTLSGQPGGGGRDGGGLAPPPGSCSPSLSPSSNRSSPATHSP
T1 sequence (P19793 1-462 partner): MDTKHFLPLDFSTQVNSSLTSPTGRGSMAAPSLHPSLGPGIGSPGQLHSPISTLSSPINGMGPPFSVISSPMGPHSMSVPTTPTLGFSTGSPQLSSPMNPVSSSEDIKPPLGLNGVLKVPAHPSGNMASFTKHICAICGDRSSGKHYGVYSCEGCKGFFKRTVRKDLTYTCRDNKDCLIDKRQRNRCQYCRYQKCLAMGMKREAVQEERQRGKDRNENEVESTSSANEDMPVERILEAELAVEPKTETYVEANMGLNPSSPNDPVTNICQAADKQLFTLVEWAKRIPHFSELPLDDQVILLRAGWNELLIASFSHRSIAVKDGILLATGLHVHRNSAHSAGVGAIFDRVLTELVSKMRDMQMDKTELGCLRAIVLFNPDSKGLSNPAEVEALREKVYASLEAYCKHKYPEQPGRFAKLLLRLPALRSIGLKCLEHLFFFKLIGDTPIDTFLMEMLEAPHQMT
As to the kind of experiment: DNA dependent coregulator recruitment assay (ternary complex immunoprecipitation from transfected CV-1 whole cell extracts). It is filed as biochemical. Particulars: for ligand mediated dissociation of N-CoR: wild type RARα ternary complex; for SRC-1 recruitment to the wild type ternary complex: wild type RARα/RXRα, FIG. 1, FIG. 5B. The method, then:
Cells were transfected and cell extracts prepared essentially as follows. For whole cell extracts, CV-1 cells were cultured with D-MEM (Gibco-BRL Life Technologies; Rockville, Md.) containing 10% activated charcoal extracted fetal bovine serum (Gemini Bio-Products). At a density of 40˜60% (15-cm plate, Falcon; Fort Worth, Tex.), cells were transiently transfected with 15 μl FuGene 6 Transfection Reagent (Roche Diagnostics) with 0.5 ug of pRS-RXRα, and 5 ug of either pcDNA3.1-hRARα-V5, pcDNA3.1-hRARβ-V5 or pcDNA3.1-hRARγ-V5 per plate. After two days, cells were rinsed twice with PBS and lysed in cold NET buffer (20 mM Tris-Cl [pH8.0], 200 mM NaCl, 1 mM EDTA, 0.1% NP-40, 10% glycerol) containing protease inhibitors, homogenized by QIAshredder (Qiagen; Valencia, Calif.), and clarified by centrifugation.
Immunoprecipitations and western analyses were performed as follows. CV-1 whole cell extract from transfected cells (1 mg) was used for each immunoprecipitation. Cell lysates were incubated with ligands on ice for 1 hour. […] After a 1 hour incubation on ice with primary antibody (mouse anti-V5, Invitrogen), protein G-agarose (SIGMA) was added and samples were rocked overnight at 4° C. […] Membranes were probed with the indicated antibodies in PBS-T buffer (PBS with 0.1% Tween-20) containing 5% nonfat dry milk, and washed in PBS-T buffer. Primary antibodies (#SC553, rabbit anti-RXRα; #SC1609, goat anti-N-CoR) were obtained from Santa Cruz Biotech and Affinity BioReagents (#MA1-840, mouse anti-SRC-1; Golden, Colo.).
The DNA dependent coregulator recruitment assay was used to measure the ability of RARα selective ligands shown in Table 2 to recruit the coactivators SRC-1 and ACTR to the RARα/RXRα heterodimer bound to a DR-5 retinoic acid receptor response element (RARE).

The next experiment concerns ER-RARα. As to the kind of experiment: ER-RARα chimeric receptor transactivation assay in transfected CV-1 cells (luciferase). It is filed as cell-based. Particulars: CV-1 cells transfected with ER-RARα; highest dose tested 1 μM; FIG. 3A. As for the experimental part:
(§1) RAR transactivation assays were performed essentially as previously described. For analysis of ER-RARα chimeric receptor transactivation, 5×10^3 CV-1 cells were plated per well of a 96-well microtiter plate and were transiently transfected with Lipofectamine and the indicated DNA. Specifically, transfections were performed with 0.1 μg of pERE-tk-Luc reporter, which contains the estrogen regulated element of the Xenopus vittelogenin A2 gene inserted into the plasmid tk-Luciferase, and 0.01 μg of the SV-40 based vector pECE carrying a chimeric ER-RAR receptor consisting of the estrogen receptor A/B and DNA binding domains fused to the DEF domain of RARα, β or γ. Alternatively, cells were cotransfected with the reporter plasmid MTV-4 (R5G)-Luciferase together with the plasmid pRS-hRXRα and either pRS-RARα-P-GR, pcDNA3-RARβ-P-GR, or pcDNA3-RARγ-P-GR as previously described (Klein et al., J. Biol. Chem. 271:22692-22696 (1996)). After eighteen hours, cells were rinsed with phosphate buffered saline (PBS) and fed with D-MEM (Gibco-BRL) containing 10% activated charcoal extracted fetal bovine serum (Gemini Bio-Products). Cells were treated with retinoids for 18 hours after which they were lysed; luciferase activity was measured as previously described, with luciferase values representing the mean±SEM of quadruplicate determinations.

Experiment [2] has as its system RARα-P-GR (wild type RARα). Put plainly: RARα-P-GR retinoid reporter transactivation in CV-1 cells. The conditions noted are these: FIG. 4. It is filed as cell-based. The method, then:
as §1, with “After eighteen hours, cells were rinsed with phosphate buffered saline (PBS) and fed with D-MEM (Gibco-BRL) containing 10% activated charcoal extracted fetal bovine serum (Gemini Bio-Products).” left out
The RAR=60 R272-A mutant was analyzed for dominant negative activity using a retinoid reporter system responsive to transfected RARs recognizing RAREs containing a glucocorticoid receptor half-site (Klein et al., supra, 1996).

For the next experiment, the system named is AP-1. As to the kind of experiment: Anti-AP1 assay: phorbol ester stimulated collagenase-promoter reporter containing an AP-1 response element. It is filed as cell-based. Particulars: for anti-AP-1 activity (antagonism of TPA stimulated collagenase reporter activity): FIG. 6. As for the experimental part: The ability of AGN196382 to antagonize phorbol ester stimulated transcription was assayed using a collagenase-promoter reporter construct containing an AP-1 response element. […] Specifically, detection of anti-AP-1 activity by AGN196382 was only detectable at doses greater than 10 μM; similarly, detection of SRC-1 recruitment to the ternary complex by 196382 was apparent only at doses greater than 10 μM. Such elevated doses of AGN196382, while sufficient for efficacious anti-AP-1 activity, are not sufficient for efficient transcriptional activation of RARα.

The test system of the next experiment is RARα(R272-A)-P-GR. Put plainly: RARα(R272-A)-P-GR retinoid reporter transactivation in CV-1 cells. It is filed as cell-based. The conditions noted are these: FIG. 4.
For experiment [3], the target named is T2, RARα R272-A containing ternary complex (Homo sapiens, UniProt P10276, R272A).
T2 construct: expressed in transfected cells; host or cells: CV-1 cells, transient transfection; whole cell extract
T2 sequence (P10276 1-462 R272A): T1 sequence (P10276 1-462) with R272A
T2 sequence (P19793 1-462 partner): T1 sequence (P19793 1-462 partner)
Put plainly: Ternary complex coregulator assay with RARα-V5 mutant R272-A. The format is biochemical. Particulars: 1 μM ligand; FIG. 2.
Description: Immunoprecipitations and western analyses were performed as follows. CV-1 whole cell extract from transfected cells (1 mg) was used for each immunoprecipitation. Cell lysates were incubated with ligands on ice for 1 hour. […] After a 1 hour incubation on ice with primary antibody (mouse anti-V5, Invitrogen), protein G-agarose (SIGMA) was added and samples were rocked overnight at 4° C. […] Membranes were probed with the indicated antibodies in PBS-T buffer (PBS with 0.1% Tween-20) containing 5% nonfat dry milk, and washed in PBS-T buffer. […]

The target of experiment [4] is RARα/RXRα heterodimer (wild type RARα-V5 with RXRα) in the RAR/RXR/DNA ternary complex (human) (UniProt P19793). As to the kind of experiment: co-immunoprecipitation of ternary complex, western blot; with 1 µM AGN194794, relative to 1 µM TTNPB. (In general: In western blotting, separated proteins are transferred to a membrane and probed.)
The target is the same in experiment [5]. Put plainly: co-immunoprecipitation of ternary complex, western blot; with 1 µM AGN196382, relative to 1 µM TTNPB.

Substitutions are numbered along the chain they refer to.

Description for RARα(R272-A)-P-GR: RAR transactivation assays were performed essentially as previously described. For analysis of ER-RARα chimeric receptor transactivation, 5×10^3 CV-1 cells were plated per well of a 96-well microtiter plate and were transiently transfected with Lipofectamine and the indicated DNA. […] After eighteen hours, cells were rinsed with phosphate buffered saline (PBS) and fed with D-MEM (Gibco-BRL) containing 10% activated charcoal extracted fetal bovine serum (Gemini Bio-Products). Cells were treated with retinoids for 18 hours after which they were lysed; luciferase activity was measured as previously described, with luciferase values representing the mean±SEM of quadruplicate determinations.

As for `CC(C)c1cc(C(=O)Nc2ccc(C(=O)O)c(F)c2)c(O)c(C(C)C)c1` [AGN194365], the “SRC-1 recruitment compared to TTNPB” value in experiment [1] (ligands 1 μM, FIG. 3B) came to 65%. Moreover, the “ligand mediated dissociation of N-CoR” value in experiment [1] is on record as “dissociation of N-CoR”. For the same compound, in the experiment with ER-RARα, the “transactivation at RARα” value was “potent and effective transactivation properties”.
In the case of `CC12CCC(C)(CC1)c1c2cc(C(=O)Nc2cc(F)c(C(=O)O)c(F)c2)c(O)c1Br` [AGN194794], the “p300 recruitment relative to TTNPB” value in experiment [1] (ligands 1 μM, FIG. 3B) is recorded as 34%. Moreover, in experiment [1], the “ligand mediated dissociation of N-CoR” value is recorded as “full N-CoR disengagement” and the “SRC-1 recruitment to the wild type ternary complex” value is “essentially identical for the two ligands”. Moreover, the “ligand mediated dissociation of N-CoR” value in experiment [1] (listed as 194794) is “dissociation of N-CoR”. Also, in the experiment with ER-RARα, the “transactivation at RARα” value was “activated RARα, albeit with slightly less efficacy and potency”.
As to `CCOc1c(C(C)C)cc(C(=O)Nc2cc(F)c(C(=O)O)c(F)c2)cc1C(C)C` [AGN196382], the “activation of wild type RARα” value in experiment [2] is listed as “significantly reduced relative to TTNPB”. In the experiment with AP-1, the “dose at which anti-AP-1 activity is detectable” value was “greater than 10 μM” and the “anti-AP-1 activity (antagonism of TPA stimulated collagenase reporter activity)” value is listed as “similarly efficacious”. Besides, the “activation of RARα(R272-A)” value with RARα(R272-A)-P-GR is reported as “not activated at all”. Also, in experiment [1], the “dose at which SRC-1 recruitment to the ternary complex is apparent” value is given as “greater than 10 μM”, the “ligand mediated dissociation of N-CoR” value was “nearly absent” and the “SRC-1 recruitment to the wild type ternary complex” value is recorded as “essentially identical for the two ligands”. Also, the “p300 recruitment relative to TTNPB” value in experiment [1] (ligands 1 μM, FIG. 3B) stood at 30%. Also, the “ligand mediated dissociation of N-CoR” value in experiment [1] (listed as 196382) is listed as “significantly impaired”. Also, the “transactivation at RARα” value with ER-RARα is “no activity at RARα except at the highest dose (1 μM) tested”. Also, the “SRC-1 recruitment to RARα R272-A ternary complex” value in experiment [3] is on record as “lack of recruitment of SRC-1”.
For the compound `CCOc1c(C2CC2)cc(C(=O)Nc2cc(F)c(C(=O)O)c(F)c2)cc1C(C)(C)C` [AGN196412], the “ACTR recruitment compared to TTNPB” value in experiment [1] (ligands 1 μM, FIG. 3B) is recorded as 65%. For the same compound, the “ligand mediated dissociation of N-CoR” value in experiment [1] is reported as “significantly impaired”. Further, the “transactivation at RARα” value in the experiment on ER-RARα is “no activity at RARα except at the highest dose (1 μM) tested”.
On to `C/C(=C\c1ccc(C(=O)O)cc1)c1ccc2c(c1)C(C)(C)CCC2(C)C` [TTNPB, reference compound], for which, in the experiment with AP-1, the “anti-AP-1 activity (antagonism of TPA stimulated collagenase reporter activity)” value is “potent and efficacious anti-AP-1 activity”.
On to “p300 (coactivator p300/CBP) (from UniProt Q09472 2-2414)”, for which the % recruitment relative to TTNPB in experiment [4] came to 34%; in experiment [5], 30%.
